In paper PMC9884426, “A phase 1 clinical trial of the repurposable acetyllysine mimetic, n-methyl-2-pyrrolidone (NMP), in relapsed or refractory multiple myeloma” (Clinical Epigenetics, 2023):
“And” between values parts separate entries of the source, which are not always exact repeats. Identical values can stand only once. Like-named read-outs stand apart in the source and are kept apart here.

Assay: Plasma pharmacokinetics of oral NMP by LCMSMS
Type: in vivo, human
Details: plasma, plasma
Method: Blood samples were taken from patients before NMP and at one, two, four, eight and 24 h post dose. Plasma samples (20 μl) were prepared by adding five volumes of methanol containing deuterated internal standard. The samples were vortexed then centrifuged, and the supernatant was transferred to a vial and injected onto the LCMSMS. The LCMSMS system consisted of a Shimadzu UHPLC with a SCIEX 6500QTrap, a KinetexC18 (3 × 50 mm, 2.6 μm) column and using a gradient of 0.1% formic acid and acetonitrile. The initial conditions were 0.5 ml/min and 2% acetonitrile; this was held for 1 min then increased to 20% acetonitrile at 2 min then increased to 70% acetonitrile and held for 0.5 min. Equilibration time was 0.5 min. MRMs for NMP were 100 → 58, 100 → 69, 100 → 41 and for the internal standard d9NMP 109 → 62, […]. PK analysis was performed using Pkanalix (version 2021R1. Antony, France: Lixoft SAS, 2021).

[1] = oral 25 mg, patient RMH-01 occasion 6
[2] = oral 50 mg, average of N = 5 profiles
[3] = oral 50 mg, individual profiles, patient RMH-01 occasions 1-5
[4] = oral 100 mg, average of N = 5 profiles
[5] = oral 100 mg, individual profiles, patient RMH-02 occasions 1-5
[6] = oral 200 mg, average of N = 8 profiles
[7] = oral 200 mg, individual profiles (PMC-03, MON-04, MON-06, MON-07, PMC-08)
[8] = oral 200 mg, individual profiles (PMC-03, MON-04, PMC-05, MON-06, MON-07, PMC-08)
[9] = oral 300 mg, average of N = 3 profiles
[10] = oral 300 mg, individual profiles (PMC-09, MON-10, MON-11)
[11] = oral 400 mg, average of N = 2 profiles
[12] = oral 400 mg, individual profiles (MON-11 occasion 2, MON-12)
[13] = oral 500 mg, patient MON-11 occasion 3
[14] = oral 600 mg, patient MON-11 occasion 4
[15] = oral 700 mg, patient MON-11 occasion 5
[16] = oral 800 mg, patient MON-11 occasion 6

`CN1CCCC1=O` [NMP, N-methyl-2-pyrrolidone] showed a Cmax (human, po, 700 mg, oral 700 mg, patient MON-11 occasion 5, read-out: Cmax) of 12400 ng/mL, a half-life (human, po, 700 mg, oral 700 mg, patient MON-11 occasion 5, read-out: Half-life (converted)) of 2.35 h and a Tmax (human, po, 700 mg, oral 700 mg, patient MON-11 occasion 5, read-out: Tmax) of 0.5 h. It also gave a Cmax (human, po, 800 mg, 800 mg dose level, oral, one patient, read-out: highest Cmax achieved) of roughly 168 µM, an AUC (human, po, 800 mg, oral 800 mg, patient MON-11 occasion 6, read-out: AUC) of 90300 ng·h/mL and a Cmax (human, po, 800 mg, oral 800 mg, patient MON-11 occasion 6, read-out: Cmax) of 16700 ng/mL. It also gave a half-life (human, po, 800 mg, oral 800 mg, patient MON-11 occasion 6, read-out: Half-life (converted)) of 1.75 h, a Tmax (human, po, 800 mg, oral 800 mg, patient MON-11 occasion 6, read-out: Tmax) of 1 h and a Cmax (human, po, 800 mg, oral, one patient, read-out: Maximum plasma concentration (Cmax), highest achieved) of 16700 ng/mL. It also gave a half-life (human, po, all dose levels 25-800 mg oral, N = 28 profiles, read-out: Half-life, Overall Average (converted)) of 1.55 h, an AUC (human, po, all dose levels 25-800 mg oral, N = 29 profiles, read-out: AUC, Overall Average) of 16900 ng·h/mL and a Cmax (human, po, all dose levels 25-800 mg oral, N = 29 profiles, read-out: Cmax, Overall Average) of 5290 ng/mL. For the same compound, the Tmax (human, po, all dose levels 25-800 mg oral, N = 29 profiles, read-out: Tmax, Overall Average) was roughly 0.5 h, the CL/F [1] was 16.65 L⋅h⁻¹ and the V/F [1] was 20.83 L. For the same compound, the “CL/F, Average” value [2] was 23.62 L⋅h⁻¹, the “V/F, Average” value [2] was 36.62 L and the AUC [3] was 1.86 h⋅mg⋅L⁻¹ and 1.88 h⋅mg⋅L⁻¹ and 2.09 h⋅mg⋅L⁻¹ and 2.18 h⋅mg⋅L⁻¹. The CL/F [3] was 17.68 L⋅h⁻¹ and 26.86 L⋅h⁻¹ and 26.66 L⋅h⁻¹ and 23.93 L⋅h⁻¹ and 22.97 L⋅h⁻¹, the Cmax [3] was 1.24 mg⋅L⁻¹ and 1.25 mg⋅L⁻¹ and 1.04 mg⋅L⁻¹ and 1.06 mg⋅L⁻¹ and the V/F [3] was 30.85 L and 38.66 L and 41.02 L and 35.88 L and 36.67 L. The half-life [3] was 0.99 h and 1.07 h and 1.04 h and 1.11 h, the “CL/F, Average” value [4] was 14.04 L⋅h⁻¹ and the “V/F, Average” value [4] was 36.98 L. The AUC [5] was 7.25 h⋅mg⋅L⁻¹ and 6.95 h⋅mg⋅L⁻¹ and 7.61 h⋅mg⋅L⁻¹ and 6.88 h⋅mg⋅L⁻¹, the CL/F [5] was 14.35 L⋅h⁻¹ and 13.79 L⋅h⁻¹ and 14.4 L⋅h⁻¹ and 13.13 L⋅h⁻¹ and 14.53 L⋅h⁻¹ and the Cmax [5] was 2.51 mg⋅L⁻¹ and 2.52 mg⋅L⁻¹ and 2.43 mg⋅L⁻¹ and 2.65 mg⋅L⁻¹. For the same compound, the V/F [5] was 34.92 L and 41.77 L and 37.5 L and 34.02 L and 36.67 L, the “CL/F, Average” value [6] was 25.52 L⋅h⁻¹ and the “V/F, Average” value [6] was 49.77 L. The CL/F [7] was 31.82 L⋅h⁻¹ and 24.02 L⋅h⁻¹ and 25.05 L⋅h⁻¹ and 20.34 L⋅h⁻¹ and 18.2 L⋅h⁻¹ and 9.1 L⋅h⁻¹ and 57.76 L⋅h⁻¹ and 17.85 L⋅h⁻¹, the V/F [7] was 64.35 L and 55.72 L and 43.19 L and 37.65 L and 36.79 L and 26.02 L and 87.19 L and 47.25 L and the AUC [8] was 6.29 h⋅mg⋅L⁻¹ and 8.33 h⋅mg⋅L⁻¹ and 7.98 h⋅mg⋅L⁻¹ and 9.83 h⋅mg⋅L⁻¹ and 5.49 h⋅mg⋅L⁻¹ and 10.99 h⋅mg⋅L⁻¹ and 21.99 h⋅mg⋅L⁻¹ and 3.46 h⋅mg⋅L⁻¹ and 11.21 h⋅mg⋅L⁻¹. For the same compound, the Cmax [8] was 2.33 mg⋅L⁻¹ and 3.98 mg⋅L⁻¹ and 4.43 mg⋅L⁻¹ and 5.05 mg⋅L⁻¹ and 2.05 mg⋅L⁻¹ and 4.95 mg⋅L⁻¹ and 7.26 mg⋅L⁻¹ and 2.64 mg⋅L⁻¹ and 3.79 mg⋅L⁻¹, the “CL/F, Average” value [9] was 15.62 L⋅h⁻¹ and the “V/F, Average” value [9] was 33.93 L. For the same compound, the AUC [10] was 32.55 h⋅mg⋅L⁻¹ and 12.73 h⋅mg⋅L⁻¹ and 21.3 h⋅mg⋅L⁻¹, the CL/F [10] was 9.22 L⋅h⁻¹ and 23.57 L⋅h⁻¹ and 14.08 L⋅h⁻¹ and the Cmax [10] was 6.89 mg⋅L⁻¹ and 6.81 mg⋅L⁻¹. For the same compound, the V/F [10] was 22.09 L and 38.59 L and 41.1 L, the half-life [10] was 1.13 h and 2.02 h and the “CL/F, Average” value [11] was 19.53 L⋅h⁻¹. For the same compound, the “V/F, Average” value [11] was 42.44 L, the AUC [12] was 15.99 h⋅mg⋅L⁻¹ and the CL/F [12] was 14.03 L⋅h⁻¹ and 25.02 L⋅h⁻¹. For the same compound, the Cmax [12] was 7.63 mg⋅L⁻¹, the V/F [12] was 35.95 L and 48.93 L and the half-life [12] was 1.36 h. For the same compound, the CL/F [13] was 12.33 L⋅h⁻¹, the V/F [13] was 35.2 L and the CL/F [14] was 10.59 L⋅h⁻¹. For the same compound, the V/F [14] was 33.11 L, the CL/F [15] was 12.16 L⋅h⁻¹ and the V/F [15] was 41.26 L. The CL/F [16] was 8.86 L⋅h⁻¹ and the V/F [16] was 22.43 L.
